One block for each compound: values may come before it.
Assays:
Type in all cases: physicochemical
[1] = Absorption strength (absorption spectrum in ethanol); set-up: λmax: unit not given here; conditions: for λmax: absorption maximum, dilute solution in ethanol; for E1% value: extinction at the absorption maximum extrapolated to 1 g/100 ml; for E1% value / Half-value width: ethanol; for Half-value width: half-value width of the absorption band
Experimental: The measure used for the absorption strength is the so-called E1% value, and the half-value width of the absorption band in relation to the absorption maximum λmax indicated. The E1% value indicates the extinction at the absorption maximum extrapolated to a concentration of 1 g/100 ml. To this end, an absorption spectrum of the substance in ethanol is recorded in dilute solution. The values are compared with the reference spectra of curcumin and beta-carotene.

[2] = Thermal stability by thermogravimetry; conditions: for Temperature at which 98% of the weight were still present: TGA, RT to 800° C., heating rate 10K/min; for thermal stabilities: verbal assessment, high-temperature processing possible without decomposition
Experimental: The thermal stability is determined with the aid of the thermogravimetry method (instrument TGA Q5000 V3.10 Build 258, temperature range RT to 800° C., heating rate 10K/min).

[3] = Fluorescence measurements; conditions: in ethanol; measurement concentration 0.00436 mg/ml (Example 4), 0.00048 mg/ml (Example 8), 0.00045 mg/ml (Example 17)
Experimental: The substance concentrations in ethanol indicated in the table are measured using an Aminco Bowman 2 fluorescence spectrometer (cell thickness 1 cm; excitation 220-600 nm; emission 220-800 nm; spectral gap width (excitation) 4 nm, (emission) 8 nm; recording speed 10 nm/min; step width (excitation) 5 nm, (emission) 4 nm.

[4] = Solubility determination in phenethyl benzoate (X-Tend 226)
Experimental: The solubility determination was carried out in phenethyl benzoate (X-Tend 226): […]

SMILES: CCOC1(C)O/C(=C\c2cc(OC)c(OC)cc2OC)C(=O)/C(=C/c2cc(OC)c(OC)cc2OC)O1 (stereo not shown) [Example 4]
λmax [1]: 444
E1% value [1]: 304
Half-value width [1]: 92 nm
Temperature at which 98% of the weight were still present [2]: 256° ° C.
thermal stabilities [2]: excellent
Emission [3]: 596 nm
Excitation [3]: 440 nm
Solubility in X-Tend 226 [4]: <0.1%

SMILES: CCOC1(C)O/C(=C\c2ccc(N(C)C)cc2OC)C(=O)/C(=C/c2ccc(N(C)C)cc2OC)O1 (stereo not shown) [Example 17, 2-ethoxy-2,6-bis-[1-(4-dimethylamino-2-methoxyphenyl)meth-(Z)ylidene]-2-methyl-1,3-dioxan-5-one]
Emission [3]: 632 nm
Excitation [3]: 490 nm

SMILES: CCOC1(C)O/C(=C\c2ccc(OC)c(OC)c2)C(=O)/C(=C/c2ccc(OC)c(OC)c2)O1 (stereo not shown) [Example 2]
λmax [1]: 412
E1% value [1]: 617
Half-value width [1]: 85 nm
Solubility in X-Tend 226 [4]: 1.2%

SMILES: CC1=C(/C=C/C(C)=C/C=C/C(C)=C/C=C/C=C(C)/C=C/C=C(C)/C=C/C2=C(C)CCCC2(C)C)C(C)(C)CCC1 [Beta-carotene, beta-carotene, reference compound]
λmax [1]: 453
E1% value [1]: 408
Half-value width [1]: 88 nm
Temperature at which 98% of the weight were still present [2]: 84° ° C.
Solubility in X-Tend 226 [4]: 0.2%

SMILES: COc1cc(/C=C/C(=O)CC(=O)/C=C/c2ccc(O)c(OC)c2)ccc1O [Curcumin, curcumin, reference compound]
λmax [1]: 426
E1% value [1]: 1507
Half-value width [1]: 78 nm
Temperature at which 98% of the weight were still present [2]: 223° ° C.
Solubility in X-Tend 226 [4]: 0.4%

SMILES: CCOC1(C)O/C(=C\c2ccc(Oc3ccccc3)cc2)C(=O)/C(=C/c2ccc(Oc3ccccc3)cc2)O1 (stereo not shown) [Example 7, (4Z,6Z)-4,6-bis[(4-phenoxyyphenyl)methylene]-2-ethoxy-2-methyl-1,3-dioxan-5-one]
λmax [1]: 389
E1% value [1]: 675
Half-value width [1]: 84 nm
Solubility in X-Tend 226 [4]: 2.2%

SMILES: CCOC1(C)O/C(=C\c2ccc(OC)cc2)C(=O)/C(=C/c2ccc(OC)cc2)O1 (stereo not shown) [Example 1, (4Z,6Z)-2-ethoxy-4,6-bis[(4-methoxyphenyl)methylene]-2-methyl-1,3-dioxan-5-one]
λmax [1]: 402
E1% value [1]: 873
Half-value width [1]: 84 nm
Solubility in X-Tend 226 [4]: 2.8%

SMILES: CCCCN(CCCC)c1ccc(/C=C2\OC(C)(OCC)O/C(=C\c3ccc(N(CCCC)CCCC)cc3)C2=O)cc1 (stereo not shown) [Example 8, (4Z,6Z)-4,6-bis[[(4-dibutylamino)phenyl]methylene]-2-ethoxy-2-methyl-1,3-dioxan-5-one]
λmax [1]: 486
E1% value [1]: 953
Half-value width [1]: 105 nm
Temperature at which 98% of the weight were still present [2]: 274° ° C.
thermal stabilities [2]: excellent
Emission [3]: 640 nm
Excitation [3]: 485 nm
Solubility in X-Tend 226 [4]: 2.8%

More lines, now with the values ahead:

λmax [1]: 394
E1% value [1]: 647
Half-value width [1]: 85 nm
Solubility in X-Tend 226 [4]: 1.1%
SMILES: CCOC1(C)O/C(=C\c2cc(OC)c(OC)c(OC)c2)C(=O)/C(=C/c2cc(OC)c(OC)c(OC)c2)O1 (stereo not shown) [Example 5]

λmax [1]: 419
E1% value [1]: 688
Half-value width [1]: 93 nm
Solubility in X-Tend 226 [4]: 1.0%
SMILES: CCOC1(C)O/C(=C\c2ccc(OC)cc2OC)C(=O)/C(=C/c2ccc(OC)cc2OC)O1 (stereo not shown) [Example 3]

λmax [1]: 404
E1% value [1]: 557
Half-value width [1]: 87 nm
Solubility in X-Tend 226 [4]: 1.0%
SMILES: CCCCCCCCOc1ccc(/C=C2\OC(C)(OCC)O/C(=C\c3ccc(OCCCCCCCC)cc3)C2=O)cc1 (stereo not shown) [Example 6, (4Z,6Z)-4,6-bis[(4-octyloxyphenyl)methylene]-2-ethoxy-2-methyl-1,3-dioxan-5-one]
